Data reported in ChEMBL document CHEMBL5154744, “Stereo-Defined Acyclic Nucleoside Phosphonates are Selective and Potent Inhibitors of Parasite 6-Oxopurine Phosphoribosyltransferases” (J Med Chem, 2022).
pKi: −log10 of the molar value.

Experiments:
[1] = Inhibition of Plasmodium falciparum HGXPRT using PRib-PP as substrate by spectrophotometric assay
[2] = Inhibition of Plasmodium vivax HGPRT using PRib-PP as substrate by spectrophotometric assay
NHDF = experiment: Cytotoxicity against human NHDF cells assessed as cell viability at 10 uM; type: toxicity, cell-based
[3] = biological target: T1, Hypoxanthine-guanine phosphoribosyltransferase (Homo sapiens, UniProt P00492); experiment: Inhibition of human HGPRT using PRib-PP as substrate by spectrophotometric assay
T1 sequence (P00492 whole entry): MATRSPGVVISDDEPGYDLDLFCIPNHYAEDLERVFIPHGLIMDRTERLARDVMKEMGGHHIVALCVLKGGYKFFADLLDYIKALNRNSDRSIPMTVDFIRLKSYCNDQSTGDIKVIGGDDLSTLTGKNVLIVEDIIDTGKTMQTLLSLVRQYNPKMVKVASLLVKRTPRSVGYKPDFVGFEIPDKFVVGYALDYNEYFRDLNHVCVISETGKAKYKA

[4] = Inhibition of His-tagged Trypanosoma brucei HGPRT1 expressed in Escherichia coli BL21 (DE3) cells using PRib-PP as substrate by spectrophotometric assay
[5] = Inhibition of His-tagged Trypanosoma brucei HGXPRT expressed in Escherichia coli BL21 (DE3) cells using PRib-PP as substrate by spectrophotometric assay
HeLa = experiment: Cytotoxicity against human HeLa cells assessed as cell viability at 10 uM; type: toxicity, cell-based

SMILES	pKi [1]	pKi [2]	Activity (NHDF)	pKi [3]	pKi [4]	pKi [5]	Activity (HeLa)
O=C(CCP(=O)(O)O)N1CC(OC[C@@H](O)P(=O)(O)O)[C@H](n2cnc3c(=O)[nH]cnc32)C1 (stereo not given in full)	8.70	8.22					
O=c1[nH]cnc2c1ncn2C[C@H](COCP(=O)([O-])[O-])OCC(O)P(=O)([O-])[O-].[Na+].[Na+].[Na+].[Na+] (stereo not given in full)		6.15	Non-Toxic	5.70	6.52	7.00	Non-Toxic
O=c1[nH]cnc2c1ncn2C[C@@H](COCP(=O)([O-])[O-])OCCCP(=O)([O-])[O-].[Na+].[Na+].[Na+].[Na+]	5.22		Non-Toxic	4.66	6.40	6.35	Non-Toxic
Nc1nc2c(ncn2C[C@@H](COCP(=O)([O-])[O-])OCCCP(=O)([O-])[O-])c(=O)[nH]1.[Na+].[Na+].[Na+].[Na+]	6.70	6.40	Non-Toxic	6.30	8.00	6.60	Non-Toxic
Nc1nc2c(ncn2C[C@@H](COCP(=O)([O-])[O-])OCC(O)CO)c(=O)[nH]1.[Na+].[Na+] (stereo not given in full)	6.00	5.70	Non-Toxic	5.05	6.52	5.70	Non-Toxic
O=c1[nH]cnc2c1ncn2CCOCC(O)P(=O)(O)O (stereo not given)	6.15			5.70	6.22	7.00	
Nc1nc2c(ncn2CC(COCP(=O)(O)O)COCP(=O)(O)O)c(=O)[nH]1	7.15	6.22					
O=c1[nH]cnc2c1ncn2CCC/C=C/P(=O)(O)O	4.89			5.22	6.00	4.92	
Nc1nc2c(ncn2C[C@@H](COCP(=O)([O-])[O-])OC[C@H](O)P(=O)([O-])[O-])c(=O)[nH]1.[Na+].[Na+].[Na+].[Na+]	7.30	7.70	Non-Toxic	7.00	8.70	7.52	Non-Toxic
O=c1[nH]cnc2c1ncn2C[C@@H](COCP(=O)([O-])[O-])OCC(O)CO.[Na+].[Na+] (stereo not given in full)	5.62	4.89	Non-Toxic		6.00	4.85	Non-Toxic
Nc1nc2c(ncn2C[C@H](COCP(=O)([O-])[O-])OCC(O)P(=O)([O-])[O-])c(=O)[nH]1.[Na+].[Na+].[Na+].[Na+] (stereo not given in full)	7.00	6.52	Non-Toxic	6.40	7.40	7.40	Non-Toxic
Nc1nc2c(ncn2CCOCC(O)P(=O)(O)O)c(=O)[nH]1 (stereo not given)	6.52			6.70		6.22	
Nc1nc2c(ncn2C[C@@H](COCCOP(=O)(O)O)COCP(=O)(O)O)c(=O)[nH]1	7.15	6.70		8.22			
Nc1nc2c(ncn2C[C@H](COCP(=O)([O-])[O-])OCCCP(=O)([O-])[O-])c(=O)[nH]1.[Na+].[Na+].[Na+].[Na+]	6.10	6.15	Non-Toxic	6.40	7.40	7.22	Non-Toxic
O=c1[nH]cnc2c1ncn2C[C@@H](COCP(=O)([O-])[O-])OCC(O)P(=O)([O-])[O-].[Na+].[Na+].[Na+].[Na+] (stereo not given in full)	6.40	6.70	Non-Toxic	5.40	7.52	7.52	Non-Toxic
O=C(CCP(=O)(O)O)N1CC(OCCP(=O)(O)O)[C@H](n2cnc3c(=O)[nH]cnc32)C1 (stereo not given in full)	7.85	7.10		7.70			
O=c1[nH]cnc2c1ncn2C[C@H](COCP(=O)([O-])[O-])OCC(O)CO.[Na+].[Na+] (stereo not given in full)			Non-Toxic		5.62	5.05	Non-Toxic
O=c1[nH]cnc2c1ncn2C[C@H](COCP(=O)([O-])[O-])OCCCP(=O)([O-])[O-].[Na+].[Na+].[Na+].[Na+]			Non-Toxic	6.52	5.82	6.70	Non-Toxic
Nc1nc2c(ncn2C[C@H](COCP(=O)([O-])[O-])OCC(O)CO)c(=O)[nH]1.[Na+].[Na+] (stereo not given in full)	6.00	5.30	Non-Toxic	5.40	6.30	5.70	Non-Toxic
O=c1[nH]cnc2c1ncn2CCCC(O)C(O)P(=O)(O)O (stereo not given)	5.52			5.30	5.15	5.22	
Nc1nc2c(ncn2C[C@@H](COCP(=O)([O-])[O-])OC[C@@H](O)P(=O)([O-])[O-])c(=O)[nH]1.[Na+].[Na+].[Na+].[Na+]	7.52	7.70	Non-Toxic	7.15	8.70	7.70	Non-Toxic
Nc1nc2c(ncn2C[C@@H](COCP(=O)([O-])[O-])OCC(O)P(=O)([O-])[O-])c(=O)[nH]1.[Na+].[Na+].[Na+].[Na+] (stereo not given in full)	7.52	8.00	Non-Toxic	7.00	8.30	7.70	Non-Toxic
